Laboratory results published in PubChem BioAssay AID330 (DTP/NCI, 2004).
“And” between values parts separate entries of the source, which are not always exact repeats. Equal values may be shown once. Toxic doses and inconclusive results are not listed.

Tested on: P388 leukemia ip, CD2F1 mice, survival T/C
Test: NCI In Vivo Anticancer Drug Screen. Data for tumor model P388 Leukemia (intraperitoneal) in CD2F1 (CDF1) mice
Conditions: endpoint: median survival time, higher = longer survival
How it was run: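 Mice carrying the transplanted tumor received test compound or vehicle. Survival was recorded in each group, and the value is the treated-group measurement divided by that of the vehicle-treated control group.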

[1] = dose: 50.0 mg/kg/injection, schedule: Q01DX009 (ip), vehicle: saline with Tween-80
[2] = dose: 100.0 mg/kg/injection, schedule: Q01DX009 (ip), vehicle: saline with Tween-80
[3] = dose: 200.0 mg/kg/injection, schedule: Q01DX009 (ip), vehicle: saline with Tween-80
[4] = dose: 50.0 mg/kg/injection, schedule: Q01DX009 (ip), vehicle: Klucel (hydroxypropylcellulose) (HPC)
[5] = dose: 100.0 mg/kg/injection, schedule: Q01DX009 (ip), vehicle: Klucel (hydroxypropylcellulose) (HPC)
[6] = dose: 200.0 mg/kg/injection, schedule: Q01DX009 (ip), vehicle: Klucel (hydroxypropylcellulose) (HPC)
[7] = dose: 50.0 mg/kg/injection, schedule: Q04DX003 (ip), vehicle: saline with Tween-80
[8] = dose: 100.0 mg/kg/injection, schedule: Q04DX003 (ip), vehicle: saline with Tween-80
[9] = dose: 60.0 mg/kg/injection, schedule: Q01DX005 (ip), vehicle: saline with Tween-80

CN1C(=O)N(C)C(O)(/C=C/c2c(Cl)cccc2Cl)N(C)C1=O
T/C (dose: 25.0 mg/kg/injection, schedule: Q01DX009 (ip), vehicle: saline with Tween-80): 106 % of control and 92 % of control
T/C [1]: 94 % of control and 96 % of control
T/C [2]: 93 % of control and 96 % of control
T/C [3]: 89 % of control and 91 % of control

Oc1cccc2c1[O][Sb][O]2
T/C (dose: 4.0 mg/kg/injection, schedule: Q01DX009 (ip), vehicle: Klucel (hydroxypropylcellulose) (HPC)): 120 % of control
T/C (dose: 4.0 mg/kg/injection, schedule: Q03HX016 (ip), vehicle: Klucel (hydroxypropylcellulose) (HPC)): 101 % of control
T/C (dose: 4.0 mg/kg/injection, schedule: Q03HX024 (ip), vehicle: Klucel (hydroxypropylcellulose) (HPC)): 103 % of control
T/C (dose: 8.0 mg/kg/injection, schedule: Q03HX024 (ip), vehicle: Klucel (hydroxypropylcellulose) (HPC)): 116 % of control
T/C (dose: 50.0 mg/kg/injection, schedule: Q01DX009 (ip), vehicle: saline): 166 % of control
T/C (dose: 64.0 mg/kg/injection, schedule: Q01DX001 (ip), vehicle: Klucel (hydroxypropylcellulose) (HPC)): 122 % of control
T/C (dose: 128.0 mg/kg/injection, schedule: Q01DX001 (ip), vehicle: Klucel (hydroxypropylcellulose) (HPC)): 115 % of control

CC1NC(=O)C2Cc3ccc(O)c(c3)Oc3cccc(c3)C(O)C(C(=O)N2C)N(C)C(=O)C(C)NC(=O)C(Cc2ccc(O)c(O)c2)N(C)C(=O)C(C)NC1=O (centres undefined)
T/C (dose: 16.0 mg/kg/injection, schedule: Q01DX009 (ip), vehicle: distilled water + Tween-80): 112 % of control
T/C (dose: 32.0 mg/kg/injection, schedule: Q01DX009 (ip), vehicle: distilled water + Tween-80): 112 % of control
T/C (dose: 64.0 mg/kg/injection, schedule: Q01DX009 (ip), vehicle: distilled water + Tween-80): 122 % of control

Cn1c(=O)n2n(c1=O)C1C3C4C5C3C13COCC53C42 (centres undefined)
T/C [4]: 97 % of control
T/C [5]: 97 % of control
T/C [6]: 100 % of control

Nc1ccc2nc3cc(Nc4ccccc4)c(=Nc4ccccc4)cc-3n(-c3ccccc3)c2c1
T/C (dose: 50.0 mg/kg/injection, schedule: Q01DX005 (ip), vehicle: saline with Tween-80): 100 % of control
T/C (dose: 100.0 mg/kg/injection, schedule: Q01DX005 (ip), vehicle: saline with Tween-80): 98 % of control
T/C (dose: 200.0 mg/kg/injection, schedule: Q01DX005 (ip), vehicle: saline with Tween-80): 93 % of control

O=C(NC(Cc1ccccc1)C(=O)CCl)OCc1ccccc1 (centres undefined)
T/C (dose: 25.0 mg/kg/injection, schedule: Q01DX009 (ip), vehicle: other): 107 % of control
T/C (dose: 25.0 mg/kg/injection, schedule: Q04DX003 (ip), vehicle: saline with Tween-80): 115 % of control
T/C (dose: 50.0 mg/kg/injection, schedule: Q01DX009 (ip), vehicle: other): 105 % of control
T/C [7]: 111 % of control
T/C [8]: 119 % of control

CCCN(CCC)CN1C(=O)c2ccccc2C1=O
T/C (dose: 25.0 mg/kg/injection, schedule: Q01DX005 (ip), vehicle: Klucel (hydroxypropylcellulose) (HPC)): 106 % of control and 92 % of control
T/C (dose: 50.0 mg/kg/injection, schedule: Q01DX005 (ip), vehicle: Klucel (hydroxypropylcellulose) (HPC)): 100 % of control and 105 % of control and 106 % of control
T/C (dose: 100.0 mg/kg/injection, schedule: Q01DX005 (ip), vehicle: Klucel (hydroxypropylcellulose) (HPC)): 109 % of control and 89 % of control and 95 % of control
T/C (dose: 200.0 mg/kg/injection, schedule: Q01DX005 (ip), vehicle: Klucel (hydroxypropylcellulose) (HPC)): 99 % of control and 108 % of control

CCCCC1(CC(=O)OCC)SCCN1C(N)=O (centres undefined)
T/C [4]: 100 % of control
T/C [5]: 108 % of control
T/C [6]: 106 % of control

COc1nc2c(ccn2C2OC(COC(C)=O)C(OC(C)=O)C(OC(C)=O)C2OC(C)=O)c(=O)n1C (centres undefined)
T/C [9]: 100 % of control
T/C (dose: 120.0 mg/kg/injection, schedule: Q01DX005 (ip), vehicle: saline with Tween-80): 104 % of control
T/C (dose: 240.0 mg/kg/injection, schedule: Q01DX005 (ip), vehicle: saline with Tween-80): 95 % of control

C/C=C(\C)C(=O)OC1CC(C)(O)C(=O)C(OC(=O)/C(C)=C/C)C2(C)CCC(O)(C(C)C)C12 (centres undefined)
T/C [1]: 105 % of control
T/C [2]: 101 % of control
T/C [3]: 100 % of control
T/C (dose: 400.0 mg/kg/injection, schedule: Q01DX009 (ip), vehicle: saline with Tween-80): 95 % of control

CCCCC(CC)CCC(C)O (centres undefined)
T/C [7]: 100 % of control
T/C [8]: 109 % of control

COc1ccc(C(Cl)(c2ccccc2)c2ccc(C(C)=O)cc2)cc1 (centres undefined)
T/C (dose: 15.0 mg/kg/injection, schedule: Q01DX005 (ip), vehicle: saline with Tween-80): 107 % of control
T/C (dose: 30.0 mg/kg/injection, schedule: Q01DX005 (ip), vehicle: saline with Tween-80): 101 % of control
T/C [9]: 88 % of control and 97 % of control
